Measured values reported in paper PMC7601674, “CoQ10 Deficient Endothelial Cell Culture Model for the Investigation of CoQ10 Blood–Brain Barrier Transport” (Journal of Clinical Medicine, 2020).

Key:
[1] = tested on: bEnd.3 cells (mouse BBB cell line) monolayer; test: CoQ10 transport assay across bEnd.3 monolayer on Transwell filters (control or pABA treated); settings: for A to B CoQ10 transport, % of control / Apical to Basal CoQ10 transport, % of control: BLT-1 10 µM, FPS-ZM1 1 µM; for A to B CoQ10 transport, % of control: verapamil 0.1 mM, added 2 h before, 60 min; for Apical to Basal CoQ10 transport, % of control: RAP 0.5 µM; for Effect on Basal to Apical transport of CoQ10: antioxidant 50 µM co-administered with CoQ10 10 µM; for Effect on B to A transport of CoQ10: pABA treated bEnd.3, antioxidant 50 µM
Method: (§1) Unless stated, CoQ10 was pre-treated by incubation in serum at a concentration of 20 µM for 45 min at 37 °C, and added to assay buffer on either the Apical (blood facing) or Basal (brain facing) side of the cells on Transwell filters. The final concentration of CoQ10 used in the assays was 10 µM in serum (50% v/v). Cells were then incubated for 60 min on an orbital shaker (100 rpm) at 37 °C. Samples of the Apical (A) and Basal (B) media were then taken for analysis to calculate A to B (blood-to-brain) or B to A (brain-to-blood) Papp in cm/s, as previously described by Patabendige et al.. CoQ10 concentrations were determined using the LC-MS/MS method described above (Section 2.2).
(§2) Inhibitors of transport were added to both Apical and Basal sides of the cells for 2 h prior to assay. Antioxidants were pre-incubated with CoQ10 in serum for 45 min prior to assay, and were present in the assay buffer. Compounds used were; SR-B1 inhibitor, blocker of lipid transport-1 (BLT-1; 10 µmol/L)
(§3) As previously described, para-aminobenzoic acid (pABA) was used as a pharmacological reagent to induce CoQ10 deficiency. The mechanism of action is via competitive inhibition of polyprenyl-4-hydroxybenzoate transferase (Coq2p), a key enzyme in the later stages of the CoQ10 biosynthetic pathway. Following the method of Duberley et al., 1 mmol/L pABA was added to culture medium for 5 days prior to assay.

bEnd.3 BBB model = settings: cited from earlier work
[2] = parameters: method as in PMID 11259830; settings: cited from earlier work
MRC complex II-III = test: Mitochondrial respiratory chain enzyme activity, complex II-III; assay type: cell-based, mouse
Method: (§4) Activities of the mitochondrial respiratory chain enzymes; complex I, complex II-III and complex IV together with the mitochondrial marker enzyme, and citrate synthase (EC 2.3.3.1) were determined spectrophotometrically on a Uvikon XL spectrophotometer with LabPower software (Version 2.06S, Northstar Scientific Ltd., Potton, UK) according to the method previously described by Hargreaves et al.. Results were expressed as a ratio to citrate synthase activity, a validated biomarker of mitochondrial content, and were normalised against mg protein. Protein quantification was determined according to the Lowry method using BSA as a standard.

[3] = tested on: claudin-5 tight junction protein in PBEC; test: Confocal microscopy of claudin-5; assay type: cell-based, porcine; settings: PBEC after 5 days pABA (1 mM)
Method: Cells for confocal microscopy were fixed in paraformaldehyde (4% w/v in PBS) for 45 min, washed with HBSS and stored in glycerol (70% v/v in PBS) until use. Cells were permeabilised with Triton-x 100 (0.1% v/v in PBS), incubated with anti-Claudin 5 Monoclonal Antibody (4C3C2) Alexa Fluor 488 (1 in 80 dilution in DAKO, overnight, 4 °C, Thermofisher) to visualise tight junctions. Samples were then mounted in Vectashield containing DAPI for nuclei staining. The Nikon A1 inverted confocal microscope was used with spectral detector and Eclipse Ti-E microscope at ×40 magnification to generate digital images, analysed using Fiji (ImageJ).

MRC complex I = test: Mitochondrial respiratory chain enzyme activity, complex I; assay type: cell-based, mouse
Method: as §4

MRC complex IV = test: Mitochondrial respiratory chain enzyme activity, complex IV; assay type: cell-based, mouse; settings: bEND.3, 1 mM pABA 5 days
Method: as §4

[4] = tested on: PBEC cellular CoQ10 content; test: Cellular CoQ10 depletion by pABA, PBEC; assay type: cell-based, porcine
Method: (§5) Final CoQ10 concentrations (nmol/L) were calculated as a ratio of CoQ10/CoQ10–[^2H9] peak areas, and quantified against the corresponding calibration curve, with appropriate correction for dilution. For intracellular determination of CoQ10 the concentration was divided by total protein (mg/mL) and expressed as pmol/mg (nmol/g) of protein.

[5] = tested on: bEnd.3 cellular CoQ10 content; test: Cellular CoQ10 depletion by pABA, bEnd.3; assay type: cell-based, mouse
Method: as §5

bEND.3 cells = test: MTT cell viability assay; assay type: cell-based, mouse; settings: pABA up to 1 mM, 5 days
Method: Cell viability was determined using the MTT assay described by Mosmann. Cells were passaged onto 96-well plates, grown to confluence and washed with HBSS prior to the addition of 3-[4,5-dimethylthiazol-2-yl]-2,5-diphenyl tetrazolium bromide (MTT; 1 mg/mL) in DMEM (without phenol red). Cells were then incubated for 4 h at 37 °C, 5% CO2, after which the medium was removed, and the remaining formazan crystals dissolved in propan-2-ol (100 μL/well). The resulting purple solution was spectrophotometrically measured at 540 nm using a Multiskan Ascent plate reader with Ascent software (MTX LabSystems, USA).

[6] = tested on: citrate synthase (EC 2.3.3.1); test: Citrate synthase activity; assay type: cell-based, mouse; settings: bEND.3, 1 mM pABA 5 days
Method: as §4

[7] = tested on: PBEC tight junction integrity; test: Transendothelial electrical resistance (TEER) of PBEC monolayer; assay type: cell-based, porcine; settings: PBEC after 5 days pABA (1 mM); control 856 ± 71; n = 6
Method: (§6) Primary porcine brain endothelial cells (PBEC) were isolated and cultured as previously published. Briefly, cells were seeded at 10 × 10^4 cells/cm^2 on collagen and fibronectin-coated polycarbonate Transwell filters (Corning 0.4 µm pore size) in 12-well plates, and grown in low glucose DMEM (Sigma D5546) supplemented with bovine plasma-derived serum (10% v/v; BPDS, First Link UK), glutamine (2 mM), heparin (125 µg/mL), penicillin (100 U/mL) and streptomycin (100 µg/mL), at 37 °C in a 5% CO2 incubator. PBECs were grown in non-contact co-culture above primary rat astrocytes until confluent, then supplemented with hydrocortisone (550 nM), 8-4-chlorophenylthio-cAMP (250 µM) and RO-20-1724 (17.5 µM) in serum-free medium for a further 3 days. Before assays of CoQ10 transport, PBECs were separated from astrocytes by moving transwell filters to fresh culture plates.
as §3

[8] = tested on: primary porcine brain endothelial cells (PBEC) monolayer; test: CoQ10 transport assay across PBEC monolayer on Transwell filters; settings: PBEC; RAP 0.5 µM applied to the basal (brain side)
Method: as §6, §1, §2

[9] = pABA treated (1 mM; 5 days) bEnd.3
[10] = bEND.3, 1 mM pABA 5 days, ratio to citrate synthase

In the case of `CCCCCCC1CCCC1=NNC(N)=S` (stereo not drawn) [BLT-1, blocker of lipid transport-1], the “Effect on “net” transport of CoQ10” value ([1]; control bEnd.3) is reported as ““net” −ve transport”, the “A to B CoQ10 transport, % of control” value ([1]; control bEnd.3) is reported as 44 % of control and the “Effect on “net” transport of CoQ10” value [1, 9] is reported as “no significant effect”. For the same molecule, the “Apical to Basal CoQ10 transport, % of control” value (from here on “Apical … % of control”) [1, 9] was “no effect”.

In the case of `N#CC(C#N)=NNc1ccc(OC(F)(F)F)cc1` [FCCP], the “Permeability to FITC-dextran” value (bEnd.3 BBB model) is given as “doubled”.

For `O=C(c1ccc(Cl)cc1)N(Cc1ccccc1)C1CCCCC1` [FPS-ZM1], the “Effect on “net” transport of CoQ10” value ([1]; control bEnd.3) was ““net” −ve transport”, the “A to B CoQ10 transport, % of control” value ([1]; control bEnd.3) was 50 % of control and the “Effect on “net” transport of CoQ10” value [1, 9] was “abolished “net” A to B transport”. The “Apical … % of control” value [1, 9] was 45 % of control.

In the case of `Cc1c(C)c2c(c(C)c1O)CCC(C)(C(=O)O)O2` (stereo not drawn) [Trolox], the “Effect on Basal to Apical transport of CoQ10” value ([1]; control bEnd.3) is reported as “increased Basal to Apical transport of CoQ10” and the “Effect on B to A transport of CoQ10” value [1] is reported as “enhanced B to A transport”.

For `COC1=C(OC)C(=O)C(CCCCCCCCCCO)=C(C)C1=O` [idebenone], the LogP [2] is listed as “less than 5”, the Direction of transport [1] is listed as “transport toward the brain side (A to B) greater than efflux to blood (B to A)” and the “Permeability (Papp) compared to CoQ10, A to B direction” value [1] is listed as 280 ×. For the same molecule, the “Permeability (Papp) compared to CoQ10, B to A direction” value [1] was 150 ×.

In the case of `CC[C@H]1/C=C/C=C/C[C@@H](C)[C@H](O)[C@@](C)(O)C(=O)[C@@H](C)[C@H](O)[C@@H](C)C(=O)[C@@H](C)[C@H](O)[C@@H](C)/C=C/C(=O)O[C@@H]2[C@H](C)[C@H](CC1)O[C@]1(CC[C@H](C)[C@H](C[C@@H](C)O)O1)[C@H]2C` [oligomycin], the “Permeability to FITC-dextran” value (bEnd.3 BBB model) is listed as “doubled”.

In the case of `Nc1ccc(C(=O)O)cc1` [pABA, para-aminobenzoic acid], the “Decrease in MRC complex II-III activity” value (MRC complex II-III; [10]) is reported as 72%, the “MRC complexes II-III activity, % of control” value (MRC complex II-III; bEnd.3, pABA 1 mmol/L 5 days) is reported as 28 % of control and the Claudin-5 localisation [3] is reported as “re-location of claudin-5 tight junction protein away from the cell membrane”. For the same molecule, the “Decrease in MRC complex I activity” value (MRC complex I; [10]) was 68%, the “MRC complex I activity, % of control” value (MRC complex I; bEnd.3, pABA 1 mmol/L 5 days) was 32 % of control and the “MRC complex IV activity, % of control” value (MRC complex IV) was 80 % of control. For the same molecule, the “Depletion of cellular CoQ10 relative to controls” value ([4]; 1 mM pABA 5 days, n = 4) was 36%, the “Cellular CoQ10, % of control” value ([4]; pABA 1 mmol/L 5 days) was 36 % of control and the “Depletion of cellular CoQ10 relative to controls” value ([5]; bEnd.3, 1 mM pABA 5 days, n = 4) was 43%. For the same molecule, the “Cellular CoQ10, % of control” value ([5]; bEnd.3, pABA 1 mmol/L 5 days) was 57 % of control, the Cell viability (bEND.3 cells) was “no change in cell viability” and the Citrate synthase activity [6] was “no significant change”. The “Transendothelial electrical resistance (TEER)” value [7] was 49 ± 9 Ω · cm^2.

For `C=C(C)[C@H]1Cc2c(ccc3c2O[C@@H]2COc4cc(OC)c(OC)cc4[C@@H]2C3=O)O1` [rotenone], the “Permeability to FITC-dextran” value (bEnd.3 BBB model) is given as “doubled”.

For `Cc1c(C)c2c(c(C)c1O)CC[C@@](C)(CCC[C@H](C)CCC[C@H](C)CCCC(C)C)O2` [α-tocopherol], the “Effect on Basal to Apical transport of CoQ10” value ([1]; control bEnd.3) was “increased Basal to Apical transport of CoQ10” and the “Effect on B to A transport of CoQ10” value [1] was “enhanced B to A transport”.

B1: receptor-associated protein (protein, UniProt P30533 35-357, looked up)
Alpha-2-macroglobulin …: YSREKNQPKPSPKRESGEEFRMEKLNQLWEKAQRLHLPPVRLAELHADLKIQERDELAWKKLKLDGLDEDGEKEARLIRNLNVILAKYGLDGKKDARQVTSNSLSGTQEDGLDDPRLEKLWHKAKTSGKFSGEELDKLWREFLHHKEKVHEYNVLLETLSRTEEIHENVISPSDLSDIKGSVLHSRHTELKEKLRSINQGLDRLRRVSHQGYSTEAEFEEPRVIDLWDLAQSANLTDKELEAFREELKHFEAKIEKHNHYQKQLEIAHEKLRHAESVGDGERVSRSREKHALLEGRTKELGYTVKKHLQDLSGRISRARHNEL
With B1 the “Effect on “net” transport of CoQ10” value ([1]; control bEnd.3) was ““net” +ve transport toward the brain side (A to B)”, the “Effect on “net” transport of CoQ10” value [1, 9] was “enhanced “net” +ve transport toward the brain side” and the “Apical … % of control” value [1, 9] was 164 % of control. The “Effect on B-to-A CoQ10 efflux” value [8] was “inhibited the B-to-A efflux”.
